Results from PubChem BioAssay (NCI).
Values joined by “and” are separate entries in the source; they are usually repeats but may differ in a detail not shown here. Equal entries are not always repeated.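 Growth conditions: 96-well plates. Treatment: test compound, 48 hours, 5 concentrations. Analysis: linear interpolation between bracketing concentrations; unreached endpoints set to highest concentration. Here, GI50 denotes the concentration required for 50% inhibition of growth. TGI marks complete inhibition of growth.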

What was measured:
Assay in all cases: NCI tumour cell line growth inhibition, 48 h
SK-MEL-5 melanoma = tested on: SK-MEL-5 melanoma
DU-145 prostate = tested on: DU-145 prostate
SNB-75 CNS = tested on: SNB-75 CNS
UACC-62 melanoma = tested on: UACC-62 melanoma
UACC-257 melanoma = tested on: UACC-257 melanoma
SF-268 CNS = tested on: SF-268 CNS
SW-620 colon = tested on: SW-620 colon
MDA-MB-231 breast = tested on: MDA-MB-231 breast
M14 melanoma = tested on: M14 melanoma
IGROV1 ovarian = tested on: IGROV1 ovarian

With `CC[C@]12C=CCN3CC[C@@]4(c5ccc(OC)cc5N(C)[C@H]4[C@@](O)(C(=O)OC)[C@@H]1OC(=O)CCC(=O)O[C@H]1CC[C@H]4[C@@H]5CCC6=CC(=O)CC[C@@H]6[C@H]5CC[C@]14C)[C@@H]32` the GI50 (SK-MEL-5 melanoma) was 0.99 µM, the TGI (SK-MEL-5 melanoma) was 2.1 µM and the GI50 (DU-145 prostate) was 2.73 µM. The TGI (DU-145 prostate) was over 50 µM, the GI50 (SNB-75 CNS) was 1.08 µM and the TGI (SNB-75 CNS) was 31.4 µM. The GI50 (UACC-62 melanoma) was 1.12 µM, the TGI (UACC-62 melanoma) was 3.13 µM and the GI50 (UACC-257 melanoma) was 2.65 µM. For the same compound, the TGI (UACC-257 melanoma) was over 50 µM, the GI50 (SF-268 CNS) was 2.17 µM and the TGI (SF-268 CNS) was over 50 µM. It also gave a GI50 (SW-620 colon) of 2.12 µM, a TGI (SW-620 colon) of over 50 µM and a GI50 (MDA-MB-231 breast) of 2.21 µM. The TGI (MDA-MB-231 breast) was over 50 µM, the GI50 (M14 melanoma) was 1.92 µM and the TGI (M14 melanoma) was over 50 µM. It also gave a GI50 (IGROV1 ovarian) of 0.973 µM and a TGI (IGROV1 ovarian) of 3.13 µM.
In the case of `Cc1cc(S(=O)(=O)Nc2nc3ccccc3c(=O)n2Cc2ccco2)c(S)cc1Cl`, the GI50 (SK-MEL-5 melanoma) is reported as 22.8 µM, the TGI (SK-MEL-5 melanoma) is reported as over 100 µM and the GI50 (DU-145 prostate) is reported as 30.7 µM. It also gave a TGI (DU-145 prostate) of over 100 µM, a GI50 (SNB-75 CNS) of 97 µM and a TGI (SNB-75 CNS) of over 100 µM. For the same compound, the GI50 (UACC-62 melanoma) was 36.4 µM, the TGI (UACC-62 melanoma) was over 100 µM and the GI50 (UACC-257 melanoma) was over 100 µM. It also gave a TGI (UACC-257 melanoma) of over 100 µM, a GI50 (SF-268 CNS) of 40.6 µM and a TGI (SF-268 CNS) of over 100 µM. For the same compound, the GI50 (SW-620 colon) was 30.7 µM, the TGI (SW-620 colon) was over 100 µM and the GI50 (MDA-MB-231 breast) was 38.5 µM. It also gave a TGI (MDA-MB-231 breast) of over 100 µM, a GI50 (M14 melanoma) of 69.9 µM and a TGI (M14 melanoma) of over 100 µM. It also gave a GI50 (IGROV1 ovarian) of 36.9 µM and a TGI (IGROV1 ovarian) of over 100 µM.
For `Cc1c(O)cccc1C(=O)N[C@@H](CSc1ccccc1)[C@H](O)CN1C[C@H]2CCCC[C@H]2C[C@H]1C(=O)NC(C)(C)C`, the GI50 (SK-MEL-5 melanoma) was 3.12 µM and 5.11 µM, the TGI (SK-MEL-5 melanoma) was 13.5 µM and 11.7 µM and the GI50 (DU-145 prostate) was 6.58 µM and 8.27 µM. The TGI (DU-145 prostate) was 25.2 µM and 31.8 µM, the GI50 (SNB-75 CNS) was 2.77 µM and 2.58 µM and the TGI (SNB-75 CNS) was 14.5 µM and 18.4 µM. The GI50 (UACC-62 melanoma) was 5.79 µM and 5.8 µM, the TGI (UACC-62 melanoma) was 18.8 µM and 17.6 µM and the GI50 (UACC-257 melanoma) was 3.66 µM and 6.84 µM. For the same compound, the TGI (UACC-257 melanoma) was 13.8 µM and 24.7 µM, the GI50 (SF-268 CNS) was 4.5 µM and 5.97 µM and the TGI (SF-268 CNS) was 15.8 µM and 26 µM. The GI50 (SW-620 colon) was 5.66 µM and 8.79 µM, the TGI (SW-620 colon) was 27 µM and 29.9 µM and the GI50 (MDA-MB-231 breast) was 3.24 µM and 5.92 µM. For the same compound, the TGI (MDA-MB-231 breast) was 11.5 µM and 13.7 µM, the GI50 (M14 melanoma) was 4.45 µM and 5.2 µM and the TGI (M14 melanoma) was 16.4 µM and 15.4 µM. The GI50 (IGROV1 ovarian) was 3.45 µM and 2.62 µM and the TGI (IGROV1 ovarian) was 32 µM and 7.74 µM.
`O=C1NC(c2ccc3ccccc3c2)Nc2ccccc21` (stereo not given) showed a TGI (SK-MEL-5 melanoma) of over 100 µM, a TGI (DU-145 prostate) of over 100 µM and a TGI (SNB-75 CNS) of over 100 µM. The TGI (UACC-62 melanoma) was over 100 µM, the TGI (UACC-257 melanoma) was over 100 µM and the TGI (SF-268 CNS) was over 100 µM. It also gave a TGI (SW-620 colon) of over 100 µM, a TGI (MDA-MB-231 breast) of over 100 µM and a TGI (M14 melanoma) of over 100 µM. The TGI (IGROV1 ovarian) was over 100 µM.
Work on `COc1ccc(C2=C(c3ccccc3)C(=O)N3CCCC3C2)cc1` (stereo not given) yielded a GI50 (SK-MEL-5 melanoma) of 3.17 µM, a TGI (SK-MEL-5 melanoma) of over 100 µM and a GI50 (DU-145 prostate) of 4.13 µM. It also gave a TGI (DU-145 prostate) of over 100 µM, a GI50 (SNB-75 CNS) of 18.9 µM and a TGI (SNB-75 CNS) of over 100 µM. The GI50 (UACC-62 melanoma) was 1.92 µM, the TGI (UACC-62 melanoma) was over 100 µM and the GI50 (UACC-257 melanoma) was over 49 µM. For the same compound, the TGI (UACC-257 melanoma) was over 100 µM, the GI50 (SF-268 CNS) was 26 µM and the TGI (SF-268 CNS) was over 100 µM. It also gave a GI50 (SW-620 colon) of 1.24 µM, a TGI (SW-620 colon) of over 100 µM and a GI50 (MDA-MB-231 breast) of over 36.1 µM. For the same compound, the TGI (MDA-MB-231 breast) was over 100 µM, the GI50 (M14 melanoma) was 9.54 µM and the TGI (M14 melanoma) was over 100 µM. It also gave a GI50 (IGROV1 ovarian) of 8.51 µM and a TGI (IGROV1 ovarian) of over 100 µM.
`CC(=O)Oc1ccc(C2OC(c3ccc4ccccc4c3OC(C)=O)=NN2C(C)=O)c(OC(C)=O)c1` (stereo not given) was tested, and the GI50 (SK-MEL-5 melanoma) was 0.321 µM, the TGI (SK-MEL-5 melanoma) was over 32.3 µM and the GI50 (DU-145 prostate) was 0.476 µM. For the same compound, the TGI (DU-145 prostate) was over 100 µM, the GI50 (SNB-75 CNS) was 1.13 µM and the TGI (SNB-75 CNS) was over 31.4 µM. The GI50 (UACC-62 melanoma) was 0.331 µM, the TGI (UACC-62 melanoma) was 9.04 µM and the GI50 (UACC-257 melanoma) was 0.331 µM. The TGI (UACC-257 melanoma) was 6.59 µM, the GI50 (SF-268 CNS) was 0.31 µM and the TGI (SF-268 CNS) was over 46 µM. The GI50 (SW-620 colon) was 0.455 µM, the TGI (SW-620 colon) was over 43.3 µM and the GI50 (MDA-MB-231 breast) was 0.506 µM. It also gave a TGI (MDA-MB-231 breast) of over 89.6 µM, a GI50 (M14 melanoma) of 0.368 µM and a TGI (M14 melanoma) of over 45.6 µM. It also gave a GI50 (IGROV1 ovarian) of 0.348 µM and a TGI (IGROV1 ovarian) of 15.1 µM.
Work on `CO/N=C(/C)COc1ccc2c(c1)oc(=O)c1cc(OC)ccc12` yielded a GI50 (SK-MEL-5 melanoma) of over 100 µM, a TGI (SK-MEL-5 melanoma) of over 100 µM and a GI50 (DU-145 prostate) of over 100 µM. It also gave a TGI (DU-145 prostate) of over 100 µM, a GI50 (SNB-75 CNS) of 57.4 µM and a TGI (SNB-75 CNS) of over 100 µM. For the same compound, the GI50 (UACC-62 melanoma) was over 100 µM, the TGI (UACC-62 melanoma) was over 100 µM and the GI50 (UACC-257 melanoma) was over 100 µM. For the same compound, the TGI (UACC-257 melanoma) was over 100 µM, the GI50 (SF-268 CNS) was over 100 µM and the TGI (SF-268 CNS) was over 100 µM. It also gave a GI50 (SW-620 colon) of over 100 µM, a TGI (SW-620 colon) of over 100 µM and a GI50 (MDA-MB-231 breast) of 34.1 µM. It also gave a TGI (MDA-MB-231 breast) of over 100 µM, a GI50 (M14 melanoma) of over 100 µM and a TGI (M14 melanoma) of over 100 µM. It also gave a GI50 (IGROV1 ovarian) of over 100 µM and a TGI (IGROV1 ovarian) of over 100 µM.
With `CCN1CCN(Cc2ccc(Nc3ncc(F)c(-c4cc(F)c5nc(C)n(C(C)C)c5c4)n3)nc2)CC1` the GI50 (SK-MEL-5 melanoma) was 0.392 µM, the TGI (SK-MEL-5 melanoma) was 10.3 µM and the GI50 (DU-145 prostate) was 5.75 µM. For the same compound, the TGI (DU-145 prostate) was 12.2 µM, the GI50 (SNB-75 CNS) was 0.094 µM and the TGI (SNB-75 CNS) was 6.68 µM. The GI50 (UACC-62 melanoma) was 6.39 µM, the TGI (UACC-62 melanoma) was 14.2 µM and the GI50 (UACC-257 melanoma) was 5.45 µM. For the same compound, the TGI (UACC-257 melanoma) was 7.97 µM, the GI50 (SF-268 CNS) was 5.32 µM and the TGI (SF-268 CNS) was 13.9 µM. The GI50 (SW-620 colon) was 0.192 µM, the TGI (SW-620 colon) was 11.9 µM and the GI50 (MDA-MB-231 breast) was 6.29 µM. The TGI (MDA-MB-231 breast) was 13 µM, the GI50 (M14 melanoma) was 3.6 µM and the TGI (M14 melanoma) was 11.5 µM. For the same compound, the GI50 (IGROV1 ovarian) was 2.03 µM and the TGI (IGROV1 ovarian) was 13.1 µM.
For `CC(C)(C)N1CC1CNC(=O)C(=O)NCC1CN1C(C)(C)C` (stereo not given), the TGI (SK-MEL-5 melanoma) was 45.2 µM, the TGI (DU-145 prostate) was over 26.9 µM and the TGI (SNB-75 CNS) was 13.2 µM. It also gave a TGI (UACC-62 melanoma) of 6.82 µM, a TGI (UACC-257 melanoma) of 11.1 µM and a TGI (SF-268 CNS) of 15.4 µM. It also gave a TGI (SW-620 colon) of over 11 µM, a TGI (MDA-MB-231 breast) of over 100 µM and a TGI (M14 melanoma) of 16.6 µM. The TGI (IGROV1 ovarian) was 19.7 µM.
`CC(C)n1cc(-c2ccc3c(c2)N(C)CC3)c2c(NS(=O)(=O)c3ccn(C)n3)ccnc21` showed a GI50 (SK-MEL-5 melanoma) of 37.4 µM, a TGI (SK-MEL-5 melanoma) of over 100 µM and a GI50 (DU-145 prostate) of over 100 µM. It also gave a TGI (DU-145 prostate) of over 100 µM, a GI50 (SNB-75 CNS) of 39.9 µM and a TGI (SNB-75 CNS) of over 100 µM. The GI50 (UACC-62 melanoma) was 36.7 µM, the TGI (UACC-62 melanoma) was over 100 µM and the GI50 (UACC-257 melanoma) was over 100 µM. For the same compound, the TGI (UACC-257 melanoma) was over 100 µM, the GI50 (SF-268 CNS) was 62 µM and the TGI (SF-268 CNS) was over 100 µM. It also gave a GI50 (SW-620 colon) of 69.7 µM, a TGI (SW-620 colon) of over 100 µM and a GI50 (MDA-MB-231 breast) of 76.1 µM. It also gave a TGI (MDA-MB-231 breast) of over 100 µM, a GI50 (M14 melanoma) of 44.5 µM and a TGI (M14 melanoma) of over 100 µM. It also gave a GI50 (IGROV1 ovarian) of 59.1 µM and a TGI (IGROV1 ovarian) of over 100 µM.
